Experimental data published in patent US6875760B2 (Novo Nordisk A/S, priority 1999, dated 2005).

biological target: T1, human glucagon receptor (Homo sapiens, UniProt P47871); assay: Glucagon Binding Assay (III); conditions: BHK cell membranes, WGA SPA beads, 125I-glucagon; read-out: Glu Bd Assay (III) IC50
T1 construct: expressed in transfected cells; host or cells: BHK (baby hamster kidney) cells
Method in brief: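 Membranes from BHK cells transfected with the human receptor, prepared at 4 °C, were used in a WGA-bead scintillation proximity binding format. Plates were shaken for 4 hours, left to settle 8–48 hours and then counted. Non-specific binding was defined with 500 nM glucagon.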

T1 sequence (P47871 26-477): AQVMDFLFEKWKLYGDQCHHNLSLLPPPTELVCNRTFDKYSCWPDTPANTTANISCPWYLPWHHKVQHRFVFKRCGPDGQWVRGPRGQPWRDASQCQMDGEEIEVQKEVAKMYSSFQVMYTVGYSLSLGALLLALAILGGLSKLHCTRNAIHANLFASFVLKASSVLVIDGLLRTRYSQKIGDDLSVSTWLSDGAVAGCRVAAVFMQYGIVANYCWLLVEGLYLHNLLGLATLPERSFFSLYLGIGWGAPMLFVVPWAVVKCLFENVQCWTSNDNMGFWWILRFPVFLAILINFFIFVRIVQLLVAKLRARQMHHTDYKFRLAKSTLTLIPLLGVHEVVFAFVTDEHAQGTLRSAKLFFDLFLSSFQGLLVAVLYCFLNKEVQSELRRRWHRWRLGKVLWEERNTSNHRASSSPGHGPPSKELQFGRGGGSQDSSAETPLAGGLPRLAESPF

Point of comparison: `CC(C)(C)C1CCC(N(Cc2ccc(C(=O)NCCC(=O)O)cc2)C(=O)NCCc2cccs2)CC1` (centres unmarked) [Example 23, 3-{4-[1-(4-tert-Butylcyclohexyl)-3-(2-thiophen-2-ylethyl)ureidomethyl]benzoylamino}propionic acid], IC50 1.8 µM. Against it:
- O=C(Nc1nn[nH]n1)c1ccc(CN(C(=O)Nc2ccc(OC(F)(F)F)c(-c3nc4ccccc4o3)c2)c2ccc(C3CCCCC3)cc2)cc1 [Example 360, 4-[3-(3-Benzoxazol-2-yl-4-trifluoromethoxyphenyl)-1-(4-cyclohexylphenyl)ureidomethyl]-N-(2H-tetrazol-5-yl)benzamide] — 220-fold lower, 0.008 µM
- CCCCc1ccc(N(Cc2ccc(C(=O)NCCC(=O)O)cc2)C(=O)Nc2ccc(OC(F)(F)F)cc2)cc1 [Example 372, 3-{4-[1-(4-Butylphenyl)-3-(4-trifluoromethoxyphenyl)ureidomethyl]benzoylamino}propionic acid] — 20-fold lower, 0.09 µM
- O=C(Nc1nn[nH]n1)c1ccc(CN(C(=O)Nc2cc(F)cc(C(F)(F)F)c2)c2ccc(C3CCCCC3)cc2)cc1 [Example 262, 4-[1-(4-Cyclohexylphenyl)-3-(3-fluoro-5-trifluoromethylphenyl)ureidomethyl]-N-(2H-tetrazol-5-yl)benzamide] — 100-fold lower, 0.018 µM
- Cc1ccc(NC(=O)N(Cc2ccc(C(=O)NCCS(=O)(=O)O)cc2)c2ccc(C(C)(C)C)cc2)cc1S(C)(=O)=O [Example 569, 2-{4-[1-(4-tert-Butylphenyl)-3-(3-methylsulfonyl-4-methylphenyl)ureidomethyl]-benzoylamino}ethanesulfonic acid] — within 1.5-fold, 1.77 µM
- CC(C)(C)c1cccc(NC(=O)N(Cc2ccc(C(=O)Nc3nn[nH]n3)cc2)c2ccc(C3CCCCC3)cc2)c1 [Example 357, 4-[1-(4-Cyclohexylphenyl)-3-(3-tert-butylphenyl)ureidomethyl]-N-(2H-tetrazol-5-yl)benzamide] — 110-fold lower, 0.017 µM
- CC(Oc1ccc(Cl)cc1)C(=O)N(Cc1ccc(C(=O)Nc2nn[nH]n2)cc1)C1CCC(C(C)(C)C)CC1 (centres unmarked) [Example 542, 4-({(4-tert-Butylcyclohexyl)-[2-(4-chlorophenoxy)propionyl]amino}methyl)-N-(2H-tetrazol-5-yl)benzamide] — 5.9-fold lower, 0.304 µM
- CC(C)(C)c1ccc(N(Cc2ccc(C(=O)NCCC(=O)O)cc2)C(=O)Nc2ccc3c(c2)C(=O)N(CC2CC2)C3=O)cc1 [Example 643, 3-{4-[3-(N′-[Cyclopropylmethyl]phthalimid-4-yl)-1-(4-tert-butylphenyl)ureidomethyl]benzoylamino}propionic acid] — 47-fold lower, 0.038 µM
- O=C(Nc1nn[nH]n1)c1ccc(CN(C(=O)Nc2nc3ccc(OC(F)(F)F)cc3s2)c2ccc(C3CCCCC3)cc2)cc1 [Example 341, 4-[1-(4-Cyclohexylphenyl)-3-(6-trifluoromethoxybenzothiazol-2-yl)ureidomethyl]-N-(2H-tetrazol-5-yl)benzamide] — 32-fold lower, 0.056 µM
- Cc1ccc(NC(=O)N(Cc2ccc(C(=O)Nc3nn[nH]n3)cc2)c2ccc(C3CCCCC3)cc2)cc1Cl [Example 327, 4-[3-(3-Chloro-4-methylphenyl)-1-(4-cyclohexylphenyl)ureidomethyl]-N-(2H-tetrazol-5-yl)benzamide] — 120-fold lower, 0.015 µM
- CS(=O)(=O)c1cccc(NC(=O)N(Cc2ccc(C(=O)NCCC(=O)O)cc2)c2ccc(C3CCCCC3)cc2)c1 [Example 469, 3-{4-[1-(4-Cyclohexylphenyl)-3-(3-methylsulfonylphenyl)ureidomethyl]benzoylamino}propionic acid] — 2.9-fold lower, 0.631 µM
- CC(C)(C)[C@H]1CC[C@H](N(Cc2ccc(C(=O)NCCC(=O)O)cc2)C(=O)Nc2cc(-c3ccccc3)n[nH]2)CC1 [Example 253, 3-{4-[1-(4-trans-tert-Butylcyclohexyl)-3-(5-Phenyl-2H-pyrazol-3-yl)ureidomethyl]benzoylamino}propionic acid] — 1.5-fold lower, 1.17 µM
- O=C(Nc1nn[nH]n1)c1ccc(CN(C(=O)Nc2ccc3c(c2)C(F)(F)OC(F)(F)O3)c2ccc(C3CCCCC3)cc2)cc1 [Example 366, 4-[1-(4-Cyclohexylphenyl)-3-(2,2,4,4-tetrafluoro-4H-benzo[1,3]dioxin-6-yl)ureidomethyl]-N-(2H-tetrazol-5-yl)benzamide] — 150-fold lower, 0.012 µM
- O=C(Nc1nn[nH]n1)c1ccc(CN(C(=O)Cc2ccc(-c3ccccc3)cc2)c2ccc(C3CCCCC3)cc2)cc1 [Example 497, 4-{[(2-Biphenyl-4-yl-acetyl)-(4-cyclohexylphenyl)amino]methyl}-N-(2H-tetrazol-5-yl)benzamide] — 3.1-fold lower, 0.589 µM
- CC(C)(C)c1ccc(N(Cc2ccc(C(=O)Nc3nn[nH]n3)cc2)C(=O)Nc2cc(C(F)(F)F)cc(C(F)(F)F)c2)cc1 [Example 330, 4-[3-(3,5-Bis(trifluoromethyl)phenyl)-1-(4-tert-butylphenyl)ureidomethyl]-N-(2H-tetrazol-5-yl)benzamide] — 41-fold lower, 0.044 µM
- CCCCN1C(=O)c2ccc(NC(=O)N(Cc3ccc(C(=O)NCCC(=O)O)cc3)C3CCC(C(C)(C)C)CC3)cc2C1=O (centres unmarked) [Example 637, 3-{4-[1-(4-tert-Butylcyclohexyl)-3-(N′-butylphthalimid-4-yl)ureidomethyl]benzoylamino}propionic acid] — 16-fold lower, 0.116 µM
- CC(C)(C)C1CCC(N(Cc2ccc(C(=O)Nc3nn[nH]n3)cc2)C(=O)/C=C/c2cccc(Cl)c2)CC1 (centres unmarked) [Example 551, 4-({(4-tert-Butylcyclohexyl)-[3-(3-chlorophenyl)acroloyl]amino}methyl)-N-(2H-tetrazol-5-yl)benzamide] — 13-fold lower, 0.136 µM
- CCCCN1C(=O)c2ccc(NC(=O)N(Cc3ccc(C(=O)Nc4nn[nH]n4)cc3)c3ccc(C4=CCCCC4)cc3)cc2C1=O [Example 625, 4-[3-(N′-Butylphthalimid-4-yl)-1-(4-cyclohex-1-enylphenyl)ureidomethyl]-N-(2H-tetrazol-5-yl)benzamide] — 260-fold lower, 0.007 µM
- CCCCN1C(=O)c2ccc(NC(=O)N(Cc3ccc(C(=O)Nc4nn[nH]n4)cc3)c3ccc(C(C)(C)C)cc3)cc2C1=O [Example 378, 4-[3-(2-Butyl-1,3-dioxo-2,3-dihydro-1H-isoindol-5-yl)-1-(4-tert-butylphenyl)ureidomethyl]-N-(2H-tetrazol-5-yl)benzamide] — 78-fold lower, 0.023 µM
- CC(C)c1noc(-c2cccc(NC(=O)N(Cc3ccc(C(=O)Nc4nn[nH]n4)cc3)c3ccc(C4CCCCC4)cc3)c2)n1 [Example 468, 4-{1-(4-Cyclohexylphenyl)-3-[3-(3-isopropyl-[1,2,4]oxadiazol-5-yl)phenyl]ureidomethyl}-N-(2H-tetrazol-5-yl)benzamide] — 78-fold lower, 0.023 µM
- CC(C)(C)c1ccc(N(Cc2ccc(C(=O)Nc3nn[nH]n3)cc2)C(=O)Nc2cccc(C(N)=O)c2)cc1 [Example 459, 3-{3-(4-tert-Butylphenyl)-3-[4-(2H-tetrazol-5-ylcarbamoyl)benzyl]ureido}benzamide] — within 1.5-fold, 2.11 µM
- CC(C)(C)C1CCC(N(Cc2ccc(C(=O)Nc3nn[nH]n3)cc2)C(=O)/C=C/c2cccs2)CC1 (centres unmarked) [Example 476, 4-{[(4-tert-Butylcyclohexyl)-(3-thiophen-2-ylacryloyl)amino]methyl}-N-(2H-tetrazol-5-yl)benzamide] — 1.9-fold lower, 0.955 µM
- O=C(O)CCNC(=O)c1ccc(CN(C(=O)Oc2cccc([N+](=O)[O-])c2)c2ccc(C3CCCCC3)cc2)cc1 [Example 414, 3-(4-{[(4-Cyclohexylphenyl)-(3-nitrophenoxycarbonyl)amino]methyl}benzoylamino)propionic acid] — 1.9-fold lower, 0.934 µM
- O=C(Nc1nn[nH]n1)c1ccc(CN(C(=O)Nc2cccc(S(=O)(=O)C3CCCC3)c2)c2ccc(C3CCCCC3)cc2)cc1 [Example 471] — 7.1-fold lower, 0.252 µM
- CCOC(=O)N1CCC(NC(=O)N(Cc2ccc(C(=O)NCCC(=O)O)cc2)[C@H]2CC[C@H](C(C)(C)C)CC2)CC1 [Example 245, 4-{3-(trans-4-tert-Butylcyclohexyl)-3-[4-(2-carboxyethylcarbamoyl)benzyl]ureido}piperidine-1-carboxylic acid ethyl ester] — 2.2-fold higher, 4.05 µM
- CC(C)(C)[C@H]1CC[C@H](N(Cc2ccc(C(=O)Nc3nn[nH]n3)cc2)C(=O)Nc2cc(C(F)(F)F)cc(C(F)(F)F)c2)CC1 [Example 375, 4-[3-(3,5-Bis(trifluoromethyl)phenyl)-1-(trans-4-tert-butylcyclohexyl)ureidomethyl]-N-(2H-tetrazol-5-yl)benzamide] — 62-fold lower, 0.029 µM
- O=C(Nc1nn[nH]n1)c1ccc(CN(C(=O)Nc2ccc(OC(F)(F)F)cc2)c2ccc(C3CCCCC3)cc2)cc1 [Example 291, 4-[1-(4-Cyclohexylphenyl)-3-(4-trifluoromethoxyphenyl)ureidomethyl]-N-(2H-tetrazol-5-yl)benzamide] — 43-fold lower, 0.042 µM
- CC(C)(C)C1CCC(N(Cc2ccc(C(=O)Nc3nn[nH]n3)cc2)C(=O)c2ccc(C3CCCCC3)cc2)CC1 (centres unmarked) [Example 488, 4-{[(4-tert-Butylcyclohexyl)-(4-cyclohexylbenzoyl)amino]methyl}-N-(2H-tetrazol-5-yl)benzamide] — 18-fold lower, 0.098 µM
- CC(C)Oc1ccc(C(=O)N(Cc2ccc(C(=O)NCCC(=O)O)cc2)c2ccc(C3CCCCC3)cc2)cc1 [Example 523, 3-(4-{[(4-Cyclohexylphenyl)-(4-isopropoxybenzoyl)amino]methyl}benzoylamino)propionic acid] — within 1.5-fold, 2.11 µM
- CC(C)(C)[C@H]1CC[C@H](N(Cc2ccc(C(=O)NCCC(=O)O)cc2)C(=O)Nc2cc(Cl)c(Cl)c(Cl)c2)CC1 [Example 238, 3-{4-[1-(trans-4-tert-Butylcyclohexyl)-3-(3,4,5-trichlorophenyl)ureidomethyl]benzoylamino}propionic acid] — 17-fold lower, 0.103 µM
- O=C(Nc1nn[nH]n1)c1ccc(CN(C(=O)/C=C/c2ccccc2Cl)c2ccc(C3CCCCC3)cc2)cc1 [Example 500, 4-{[[3-(2-Chlorophenyl)acryloyl]-(4-cyclohexylphenyl)amino]methyl}-N-(2H-tetrazol-5-yl)benzamide] — 13-fold lower, 0.14 µM
- CN(C)S(=O)(=O)c1cccc(NC(=O)N(Cc2ccc(C(=O)Nc3nn[nH]n3)cc2)c2ccc(C3CCCCC3)cc2)c1 [Example 275, 4-[1-(4-Cyclohexylphenyl)-3-(3-dimethylsulfamoylphenyl)ureidomethyl]-N-(2H-tetrazol-5-yl)benzamide] — 18-fold lower, 0.101 µM
